Results: patent US20150141336A1, “Pancreatic Peptide Compounds and Use” (Novo Nordisk A/S, priority 2012, published 2015)
Numbered stars: 1 amine (or outer) side, 2 acyl side, 3 side chain; on linkers, the order of the positions; unused ones are H or OH. Side chains are listed from the residue outwards. Peptide text beside a SMILES is read from it. * marks the point of attachment. C18 diacid = O=C(O)CCCCCCCCCCCCCCCCC(=O)*; γGlu = O=C(O)[C@H](CCC(=O)[*:2])N[*:1]; AEEA = NCCOCCOCC(=O)O

Assay: Assay (II) PK i.v. minipig, in vivo half-life
Parameters: species or system Göttingen mini-pigs
Settings: male, Göttingen, minipig, iv
Outline: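 Male Göttingen mini-pigs (18–22 kg, n=5) received 6 nmol/kg i.v. via central catheter, formulated in 50 mM K2HPO4, 0.05% tween 80, pH 8.0. EDTA plasma sampled pre-dose to 240 h, quantified by TFC/LC/MS/MS (MRM, range 1-2000 nmol/l); half-life from non-compartmental analysis per animal.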

Structure (SMILES) | Half-life minipig, Assay (II)
CC[C@H](C)[C@H](NC(=O)[C@H](Cc1ccc(O)cc1)NC(=O)[C@H](CCCNC(=N)N)NC(=O)[C@H](CCCNC(=N)N)NC(=O)[C@H](CC(C)C)NC(=O)[C@H](CC(=O)O)NC(=O)[C@H](C)NC(=O)[C@H](C)NC(=O)[C@H](Cc1ccc(O)cc1)NC(=O)[C@H](CCC(N)=O)NC(=O)[C@H](C)NC(=O)[C@H](CCSC)NC(=O)[C@H](CCCCNC(=O)COCCOCCNC(=O)COCCOCCNC(=O)CC[C@H](NC(=O)CCCCCCCCCCCCCCCCC(=O)O)C(=O)O)NC(=O)[C@H](CCC(=O)O)NC(=O)[C@@H]1CCCN1C(=O)[C@@H](NC(=O)[C@H](C)NC(=O)[C@H](CC(N)=O)NC(=O)[C@H](CC(=O)O)NC(=O)CNC(=O)[C@@H]1CCCN1C(=O)[C@H](Cc1ccc(O)cc1)NC(=O)[C@@H](NC(=O)[C@@H]1CCCN1C(=O)[C@H](CCC(=O)O)NC(=O)[C@H](CC(C)C)NC(=O)[C@@H]1CCCN1)C(C)C)[C@@H](C)O)C(=O)N[C@@H](CC(N)=O)C(=O)N[C@@H](CCSC)C(=O)N[C@@H](CC(C)C)C(=O)N[C@H](C(=O)N[C@@H](CCCNC(=N)N)C(=O)N1CCC[C@H]1C(=O)N[C@@H](CCCNC(=N)N)C(=O)N[C@@H](Cc1ccc(O)cc1)C(N)=O)[C@@H](C)O [Compound R] (H-PLEPVYPGDNATPEK([AEEA-AEEA-γGlu-C18 diacid])MAQYAADLRRYINMLTRPRY-NH2; N-terminus and C-terminus assumed) | 40 h

Same assay, conditions: male, Göttingen, minipig, iv, Half-life minipig, Assay (II)

Structure (SMILES) | half-life
CC[C@H](C)[C@H](NC(=O)[C@H](Cc1ccc(O)cc1)NC(=O)[C@H](CCCNC(=N)N)NC(=O)[C@H](CCCNC(=N)N)NC(=O)[C@H](CC(C)C)NC(=O)[C@H](CC(=O)O)NC(=O)[C@H](C)NC(=O)[C@H](C)NC(=O)[C@H](Cc1ccc(O)cc1)NC(=O)[C@H](CCCCNC(=O)COCCOCCNC(=O)COCCOCCNC(=O)CC[C@H](NC(=O)CCCCCCCCCCCCCCCCC(=O)O)C(=O)O)NC(=O)[C@H](C)NC(=O)[C@H](CCSC)NC(=O)[C@H](CCC(N)=O)NC(=O)[C@H](CCC(=O)O)NC(=O)[C@@H]1CCCN1C(=O)[C@@H](NC(=O)[C@H](C)NC(=O)[C@H](CC(N)=O)NC(=O)[C@H](CC(=O)O)NC(=O)CNC(=O)[C@@H]1CCCN1C(=O)[C@H](Cc1ccc(O)cc1)NC(=O)[C@@H](NC(=O)[C@@H]1CCCN1C(=O)[C@H](CCC(=O)O)NC(=O)[C@H](CC(C)C)NC(=O)[C@@H]1CCCN1)C(C)C)[C@@H](C)O)C(=O)N[C@@H](CC(N)=O)C(=O)N[C@@H](CCSC)C(=O)N[C@@H](CC(C)C)C(=O)N[C@H](C(=O)N[C@@H](CCCNC(=N)N)C(=O)N1CCC[C@H]1C(=O)N[C@@H](CCCNC(=N)N)C(=O)N[C@@H](Cc1ccc(O)cc1)C(N)=O)[C@@H](C)O [Compound O] (H-PLEPVYPGDNATPEQMAK([AEEA-AEEA-γGlu-C18 diacid])YAADLRRYINMLTRPRY-NH2; N-terminus and C-terminus assumed) | 60 h
CC[C@H](C)[C@H](NC(=O)[C@H](Cc1ccc(O)cc1)NC(=O)[C@H](CCCNC(=N)N)NC(=O)[C@H](CCCNC(=N)N)NC(=O)[C@H](CC(C)C)NC(=O)[C@H](CC(=O)O)NC(=O)[C@H](C)NC(=O)[C@H](C)NC(=O)[C@H](Cc1ccc(O)cc1)NC(=O)[C@H](CCC(N)=O)NC(=O)[C@H](CCCCNC(=O)COCCOCCNC(=O)COCCOCCNC(=O)CC[C@H](NC(=O)CCCCCCCCCCCCCCCCC(=O)O)C(=O)O)NC(=O)[C@H](CCSC)NC(=O)[C@H](CCC(N)=O)NC(=O)[C@H](CCC(=O)O)NC(=O)[C@@H]1CCCN1C(=O)[C@@H](NC(=O)[C@H](C)NC(=O)[C@H](CC(N)=O)NC(=O)[C@H](CC(=O)O)NC(=O)CNC(=O)[C@@H]1CCCN1C(=O)[C@H](Cc1ccc(O)cc1)NC(=O)[C@@H](NC(=O)[C@@H]1CCCN1C(=O)[C@H](CCC(=O)O)NC(=O)[C@H](CC(C)C)NC(=O)[C@@H]1CCCN1)C(C)C)[C@@H](C)O)C(=O)N[C@@H](CC(N)=O)C(=O)N[C@@H](CCSC)C(=O)N[C@@H](CC(C)C)C(=O)N[C@H](C(=O)N[C@@H](CCCNC(=N)N)C(=O)N1CCC[C@H]1C(=O)N[C@@H](CCCNC(=N)N)C(=O)N[C@@H](Cc1ccc(O)cc1)C(N)=O)[C@@H](C)O [Compound P] (H-PLEPVYPGDNATPEQMK([AEEA-AEEA-γGlu-C18 diacid])QYAADLRRYINMLTRPRY-NH2; N-terminus and C-terminus assumed) | 71 h
CC[C@H](C)[C@H](NC(=O)[C@H](Cc1ccc(O)cc1)NC(=O)[C@H](CCCNC(=N)N)NC(=O)[C@H](CCCNC(=N)N)NC(=O)[C@H](CC(C)C)NC(=O)[C@H](CC(=O)O)NC(=O)[C@H](C)NC(=O)[C@H](C)NC(=O)[C@H](Cc1ccc(O)cc1)NC(=O)[C@H](CCC(N)=O)NC(=O)[C@H](C)NC(=O)[C@H](CCCCNC(=O)COCCOCCNC(=O)COCCOCCNC(=O)CC[C@H](NC(=O)CCCCCCCCCCCCCCCCC(=O)O)C(=O)O)NC(=O)[C@H](CCC(N)=O)NC(=O)[C@H](CCC(=O)O)NC(=O)[C@@H]1CCCN1C(=O)[C@@H](NC(=O)[C@H](C)NC(=O)[C@H](CC(N)=O)NC(=O)[C@H](CC(=O)O)NC(=O)CNC(=O)[C@@H]1CCCN1C(=O)[C@H](Cc1ccc(O)cc1)NC(=O)[C@@H](NC(=O)[C@@H]1CCCN1C(=O)[C@H](CCC(=O)O)NC(=O)[C@H](CC(C)C)NC(=O)[C@@H]1CCCN1)C(C)C)[C@@H](C)O)C(=O)N[C@@H](CC(N)=O)C(=O)N[C@@H](CCSC)C(=O)N[C@@H](CC(C)C)C(=O)N[C@H](C(=O)N[C@@H](CCCNC(=N)N)C(=O)N1CCC[C@H]1C(=O)N[C@@H](CCCNC(=N)N)C(=O)N[C@@H](Cc1ccc(O)cc1)C(N)=O)[C@@H](C)O [Compound Q] (H-PLEPVYPGDNATPEQK([AEEA-AEEA-γGlu-C18 diacid])AQYAADLRRYINMLTRPRY-NH2; N-terminus and C-terminus assumed) | 56 h
CC[C@H](C)[C@H](NC(=O)[C@H](Cc1ccc(O)cc1)NC(=O)[C@H](CCCNC(=N)N)NC(=O)[C@H](CCCNC(=N)N)NC(=O)[C@H](CC(C)C)NC(=O)[C@H](CC(=O)O)NC(=O)[C@H](C)NC(=O)[C@H](C)NC(=O)[C@H](Cc1ccc(O)cc1)NC(=O)[C@H](CCC(N)=O)NC(=O)[C@H](C)NC(=O)[C@H](CCSC)NC(=O)[C@H](CCCCNC(=O)COCCOCCNC(=O)COCCOCCNC(=O)CC[C@H](NC(=O)CCCCCCCCCCCCCCCCC(=O)O)C(=O)O)NC(=O)[C@H](CCC(=O)O)NC(=O)[C@@H]1CCCN1C(=O)[C@@H](NC(=O)[C@H](C)NC(=O)[C@H](CC(N)=O)NC(=O)[C@H](CC(=O)O)NC(=O)CNC(=O)[C@@H]1CCCN1C(=O)[C@H](Cc1ccc(O)cc1)NC(=O)[C@@H](NC(=O)[C@@H]1CCCN1C(=O)[C@H](CCC(=O)O)NC(=O)[C@H](CC(C)C)NC(=O)[C@@H]1CCCN1)C(C)C)[C@@H](C)O)C(=O)N[C@@H](CC(N)=O)C(=O)N[C@@H](CCSC)C(=O)N[C@@H](CC(C)C)C(=O)N[C@H](C(=O)N[C@@H](CCCNC(=N)N)C(=O)N1CCC[C@H]1C(=O)N[C@@H](CCCNC(=N)N)C(=O)N[C@@H](Cc1ccc(O)cc1)C(N)=O)[C@@H](C)O [Compound R] (H-PLEPVYPGDNATPEK([AEEA-AEEA-γGlu-C18 diacid])MAQYAADLRRYINMLTRPRY-NH2; N-terminus and C-terminus assumed) | 44 h
CC[C@H](C)[C@H](NC(=O)[C@H](Cc1ccc(O)cc1)NC(=O)[C@H](CCCNC(=N)N)NC(=O)[C@H](CCCNC(=N)N)NC(=O)[C@H](CC(C)C)NC(=O)[C@H](CC(=O)O)NC(=O)[C@H](C)NC(=O)[C@H](C)NC(=O)[C@H](Cc1ccc(O)cc1)NC(=O)[C@H](CCC(N)=O)NC(=O)[C@H](C)NC(=O)[C@H](CCSC)NC(=O)[C@H](CCC(N)=O)NC(=O)[C@H](CCCCNC(=O)COCCOCCNC(=O)COCCOCCNC(=O)CC[C@H](NC(=O)CCCCCCCCCCCCCCCCC(=O)O)C(=O)O)NC(=O)[C@@H]1CCCN1C(=O)[C@@H](NC(=O)[C@H](C)NC(=O)[C@H](CC(N)=O)NC(=O)[C@H](CC(=O)O)NC(=O)CNC(=O)[C@@H]1CCCN1C(=O)[C@H](Cc1ccc(O)cc1)NC(=O)[C@@H](NC(=O)[C@@H]1CCCN1C(=O)[C@H](CCC(=O)O)NC(=O)[C@H](CC(C)C)NC(=O)[C@@H]1CCCN1)C(C)C)[C@@H](C)O)C(=O)N[C@@H](CC(N)=O)C(=O)N[C@@H](CCSC)C(=O)N[C@@H](CC(C)C)C(=O)N[C@H](C(=O)N[C@@H](CCCNC(=N)N)C(=O)N1CCC[C@H]1C(=O)N[C@@H](CCCNC(=N)N)C(=O)N[C@@H](Cc1ccc(O)cc1)C(N)=O)[C@@H](C)O [Compound S] (H-PLEPVYPGDNATPK([AEEA-AEEA-γGlu-C18 diacid])QMAQYAADLRRYINMLTRPRY-NH2; N-terminus and C-terminus assumed) | 35 h
CC[C@H](C)[C@H](NC(=O)[C@H](Cc1ccc(O)cc1)NC(=O)[C@H](CCCNC(=N)N)NC(=O)[C@H](CCCNC(=N)N)NC(=O)[C@H](CC(C)C)NC(=O)[C@H](CC(=O)O)NC(=O)[C@H](C)NC(=O)[C@H](C)NC(=O)[C@H](Cc1ccc(O)cc1)NC(=O)[C@H](CCC(N)=O)NC(=O)[C@H](C)NC(=O)[C@H](CCSC)NC(=O)[C@H](CCC(N)=O)NC(=O)[C@H](CCC(=O)O)NC(=O)[C@H](CCCCNC(=O)COCCOCCNC(=O)COCCOCCNC(=O)CC[C@H](NC(=O)CCCCCCCCCCCCCCCCC(=O)O)C(=O)O)NC(=O)[C@@H](NC(=O)[C@H](C)NC(=O)[C@H](CC(N)=O)NC(=O)[C@H](CC(=O)O)NC(=O)CNC(=O)[C@@H]1CCCN1C(=O)[C@H](Cc1ccc(O)cc1)NC(=O)[C@@H](NC(=O)[C@@H]1CCCN1C(=O)[C@H](CCC(=O)O)NC(=O)[C@H](CC(C)C)NC(=O)[C@@H]1CCCN1)C(C)C)[C@@H](C)O)C(=O)N[C@@H](CC(N)=O)C(=O)N[C@@H](CCSC)C(=O)N[C@@H](CC(C)C)C(=O)N[C@H](C(=O)N[C@@H](CCCNC(=N)N)C(=O)N1CCC[C@H]1C(=O)N[C@@H](CCCNC(=N)N)C(=O)N[C@@H](Cc1ccc(O)cc1)C(N)=O)[C@@H](C)O [Compound T] (H-PLEPVYPGDNATK([AEEA-AEEA-γGlu-C18 diacid])EQMAQYAADLRRYINMLTRPRY-NH2; N-terminus and C-terminus assumed) | 45 h
CC[C@H](C)[C@H](NC(=O)[C@H](Cc1ccc(O)cc1)NC(=O)[C@H](CCCNC(=N)N)NC(=O)[C@H](CCCNC(=N)N)NC(=O)[C@H](CC(C)C)NC(=O)[C@H](CC(=O)O)NC(=O)[C@H](C)NC(=O)[C@H](C)NC(=O)[C@H](Cc1ccc(O)cc1)NC(=O)[C@H](CCC(N)=O)NC(=O)[C@H](C)NC(=O)[C@H](CCSC)NC(=O)[C@H](CCC(N)=O)NC(=O)[C@H](CCC(=O)O)NC(=O)[C@@H]1CCCN1C(=O)[C@H](CCCCNC(=O)COCCOCCNC(=O)COCCOCCNC(=O)CC[C@H](NC(=O)CCCCCCCCCCCCCCCCC(=O)O)C(=O)O)NC(=O)[C@H](C)NC(=O)[C@H](CC(N)=O)NC(=O)[C@H](CC(=O)O)NC(=O)CNC(=O)[C@@H]1CCCN1C(=O)[C@H](Cc1ccc(O)cc1)NC(=O)[C@@H](NC(=O)[C@@H]1CCCN1C(=O)[C@H](CCC(=O)O)NC(=O)[C@H](CC(C)C)NC(=O)[C@@H]1CCCN1)C(C)C)C(=O)N[C@@H](CC(N)=O)C(=O)N[C@@H](CCSC)C(=O)N[C@@H](CC(C)C)C(=O)N[C@H](C(=O)N[C@@H](CCCNC(=N)N)C(=O)N1CCC[C@H]1C(=O)N[C@@H](CCCNC(=N)N)C(=O)N[C@@H](Cc1ccc(O)cc1)C(N)=O)[C@@H](C)O [Compound U] (H-PLEPVYPGDNAK([AEEA-AEEA-γGlu-C18 diacid])PEQMAQYAADLRRYINMLTRPRY-NH2; N-terminus and C-terminus assumed) | 23 h
